The source of these data is patent publication US9095138B2, “Isoxazoline insecticides” (E.I. du Pont de Nemours and Company, priority 2007, dated 2015).

The test system of series [1] is diamondback moth (Plutella xylostella). The series can be described thus: Test A: control of diamondback moth on radish plant, foliar spray. Type of series: in vivo. Conditions: sprayed at 50 ppm; neonate larvae on radish; assessed after 6 days; replicated three times. An excerpt:
For evaluating control of diamondback moth (Plutella xylostella) the test unit consisted of a small open container with a 12-14-day-old radish plant inside. This was pre-infested with about 50 neonate larvae that were dispensed into the test unit via corn-cob grits using a bazooka inoculator. The larvae moved onto the test plant after being dispensed into the test unit.
(§1) Test compounds were formulated using a solution containing 10% acetone, 90% water and 300 ppm X-77™ Spreader Lo-Foam Formula non-ionic surfactant containing alkylarylpolyoxyethylene, free fatty acids, glycols and isopropanol (Loveland Industries, Inc. Greeley, Colo., USA). The formulated compounds were applied in 1 mL of liquid through a SUJ2 atomizer nozzle with ⅛ JJ custom body (Spraying Systems Co. Wheaton, Ill., USA) positioned 1.27 cm (0.5 inches) above the top of each test unit. All experimental compounds in these tests were sprayed at 50 ppm, and the test was replicated three times. After spraying of the formulated test compound, each test unit was allowed to dry for 1 h and then a black, screened cap was placed on top. The test units were held for 6 days in a growth chamber at 25° C. and 70% relative humidity. Plant feeding damage was then visually assessed based on foliage consumed and a pest mortality rating was also counted and calculated for each test unit.

Series [2] relates to western flower thrips (Frankliniella occidentalis). The series can be described thus: Test E: control of western flower thrips on Soleil bean plant, contact and/or systemic. Type of series: in vivo. As to conditions: adult thrips, assessed after 6 days, replicated three times. The method, then:
as §1
For evaluating control of the western flower thrips (Frankliniella occidentalis) through contact and/or systemic means, the test unit consisted of a small open container with a 5-7 day old Soleil Bean plant inside. Test compounds were formulated and sprayed as described for Test A. All experimental compounds in these tests were sprayed at 250 or 50 ppm as noted, and the test was replicated three times. After spraying, the test units were allowed to dry for 1 hour and then 22-27 adult thrips were added to each unit and then a black, screened cap was placed on top. The test units were held for 6 days at 25° C. and 45-55% relative humidity. A mortality rating was assessed along with a plant damage rating for each test unit.

Consider `O=C(NC(C(=O)O)c1ccccc1)c1ccc(C2=NOC(c3cc(Cl)cc(Cl)c3)(C(F)(F)F)C2)c2ccccc12` (mixture of isomers) [Compound 5], for which the “control efficacy (feeding damage or mortality): very good to excellent levels” value (“control efficacy” below) in series [1] was 20% or less feeding damage or 80% or more mortality.

For `CC(NC(=O)c1ccc(C2=NOC(c3cc(Cl)cc(OC(F)(F)F)c3)(C(F)(F)F)C2)c2ccccc12)C(=O)O` (mixture of isomers) [Compound 35], the “control efficacy” value in series [1] is on record as 20% or less feeding damage or 80% or more mortality. Take `CC(NC(=O)c1ccc(C2=NOC(c3cc(Cl)cc(OCC(F)(F)F)c3)(C(F)(F)F)C2)c2ccccc12)C(=O)O` (mixture of isomers) [Compound 37]: in series [1], the “control efficacy” value is listed as 20% or less feeding damage or 80% or more mortality. On to `CN(CCCNC(=O)c1ccc(C2=NOC(c3cc(Cl)cc(Cl)c3)(C(F)(F)F)C2)c2ccccc12)C(=O)OC(C)(C)C` (racemic) [Compound 3], for which the “control efficacy” value in series [2] (sprayed at 50 ppm), in series [2] (sprayed at 250 ppm) and in series [1] was 20% or less feeding damage or 80% or more mortality throughout.

With `CC(C)(NC(=O)c1ccc(C2=NOC(c3cc(Cl)cc(Cl)c3)(C(F)(F)F)C2)c2ccccc12)C(=O)O` (racemic) [Compound 6], the “control efficacy” value in series [2] (sprayed at 50 ppm), in series [2] (sprayed at 250 ppm) and in series [1] was 20% or less feeding damage or 80% or more mortality throughout. Consider `O=C(O)CCNC(=O)c1ccc(C2=NOC(c3cc(Cl)cc(Cl)c3)(C(F)(F)F)C2)c2ccccc12` (racemic) [Compound 7], for which the “control efficacy” value in series [1] was 20% or less feeding damage or 80% or more mortality. With `O=C(O)CNC(=O)c1ccc(C2=NOC(c3cc(Cl)c(Cl)c(Cl)c3)(C(F)(F)F)C2)c2ccccc12` (racemic) [Compound 8], the “control efficacy” value in series [2] (sprayed at 250 ppm) and in series [1] was 20% or less feeding damage or 80% or more mortality in each case. Regarding `CS(=O)(=O)NC(=O)c1ccc(C2=NOC(c3cc(Cl)cc(Cl)c3)(C(F)(F)F)C2)c2ccccc12` (racemic) [Compound 10], in series [1], the “control efficacy” value is recorded as 20% or less feeding damage or 80% or more mortality.

`O=C(O)CNC(=O)c1ccc(C2=NOC(c3cc(Cl)cc(Cl)c3)(C(F)(F)F)C2)c2ccccc12` (racemic) [Compound 12]: the “control efficacy” value in series [1] is on record as 20% or less feeding damage or 80% or more mortality. Take `O=C([O-])CNC(=O)c1ccc(C2=NOC(c3cc(Cl)cc(Cl)c3)(C(F)(F)F)C2)c2ccccc12.[Na+]` (racemic) [Compound 13]: the “control efficacy” value in series [1] is on record as 20% or less feeding damage or 80% or more mortality. For the compound `O=C(O)CNC(=O)c1ccc(C2=NOC(c3cc(Br)cc(C(F)(F)F)c3)(C(F)(F)F)C2)c2ccccc12` (racemic) [Compound 23], in series [1], the “control efficacy” value was 20% or less feeding damage or 80% or more mortality. The same measure, in the same setting: to `CC(C)=NOC(=O)CNC(=O)c1ccc(C2=NOC(c3cc(C(F)(F)F)cc(C(F)(F)F)c3)(C(F)(F)F)C2)c2ccccc12` (racemic) [Compound 25] belongs 20% or less feeding damage or 80% or more mortality. For `O=C(O)CNC(=O)c1ccc(C2=NOC(c3cc(Cl)cc(C(F)(F)F)c3)(C(F)(F)F)C2)c2ccccc12` (racemic) [Compound 26], the “control efficacy” value in series [2] (sprayed at 250 ppm) and in series [1] was 20% or less feeding damage or 80% or more mortality in each case. Consider `O=C(O)CNC(=O)c1ccc(C2=NOC(c3cc(Cl)cc(OC(F)(F)F)c3)(C(F)(F)F)C2)c2ccccc12` (racemic) [Compound 34], for which the “control efficacy” value in series [1] was 20% or less feeding damage or 80% or more mortality. For `CC(C)[C@@H](NC(=O)c1ccc(C2=NOC(c3cc(C(F)(F)F)cc(C(F)(F)F)c3)(C(F)(F)F)C2)c2ccccc12)C(=O)O` (stereo partly drawn) [Compound 39], the “control efficacy” value in series [1] was 20% or less feeding damage or 80% or more mortality. For `CC(C)(NC(=O)c1ccc(C2=NOC(c3cc(Cl)cc(Cl)c3)(C(F)(F)F)C2)c2ccccc12)C(=O)NCC1CC1` (stereo not drawn) [Compound 43], the “control efficacy” value in series [2] (sprayed at 50 ppm), in series [2] (sprayed at 250 ppm) and in series [1] was 20% or less feeding damage or 80% or more mortality in each case.

As for `O=C(CNC(=O)c1ccc(C2=NOC(c3cc(Cl)cc(Cl)c3)(C(F)(F)F)C2)c2ccccc12)NCc1ccccn1` (stereo not drawn) [Compound 45], the “control efficacy” value in series [2] (sprayed at 250 ppm) and in series [1] was 20% or less feeding damage or 80% or more mortality throughout.

On to `O=C(CNC(=O)c1ccc(C2=NOC(c3cc(Cl)cc(Cl)c3)(C(F)(F)F)C2)c2ccccc12)Nc1ccc(C(F)(F)F)cc1` (stereo not drawn) [Compound 46], for which the “control efficacy” value in series [1] is listed as 20% or less feeding damage or 80% or more mortality. As for `CSCCNC(=O)CNC(=O)c1ccc(C2=NOC(c3cc(Cl)cc(Cl)c3)(C(F)(F)F)C2)c2ccccc12` (stereo not drawn) [Compound 48], the “control efficacy” value in series [2] (sprayed at 250 ppm) and in series [1] was 20% or less feeding damage or 80% or more mortality in each case. Consider `CSCCNC(=O)CNC(=O)c1ccc(C2=NOC(c3cccc(Br)c3)(C(F)(F)F)C2)c2ccccc12` (stereo not drawn) [Compound 57], for which the “control efficacy” value in series [1] is 20% or less feeding damage or 80% or more mortality. Same read-out and setting: to `O=C(CNC(=O)c1ccc(C2=NOC(c3cccc(OC(F)(F)F)c3)(C(F)(F)F)C2)c2ccccc12)NCc1ccccn1` (stereo not drawn) [Compound 59] belongs 20% or less feeding damage or 80% or more mortality; to `O=C(CNC(=O)c1ccc(C2=NOC(c3cc(F)cc(F)c3)(C(F)(F)F)C2)c2ccccc12)NC1CC1` (stereo not drawn) [Compound 62], 20% or less feeding damage or 80% or more mortality. Turning to `O=C(CNC(=O)c1ccc(C2=NOC(c3cccc(F)c3)(C(F)(F)F)C2)c2ccccc12)NC1CC1` (stereo not drawn) [Compound 63], in series [1], the “control efficacy” value is on record as 20% or less feeding damage or 80% or more mortality. As to `O=C(NCC(=O)N1CCCCC1)c1ccc(C2=NOC(c3cc(Cl)cc(Cl)c3)(C(F)(F)F)C2)c2ccccc12` (stereo not drawn) [Compound 89], the “control efficacy” value in series [2] (sprayed at 250 ppm) and in series [1] was 20% or less feeding damage or 80% or more mortality throughout.

Turning to `CCS(=O)(=O)N1CCN(C(=O)CNC(=O)c2ccc(C3=NOC(c4cccc(C(F)(F)F)c4)(C(F)(F)F)C3)c3ccccc23)CC1` (stereo not drawn) [Compound 92], the “control efficacy” value in series [1] is recorded as 20% or less feeding damage or 80% or more mortality. Take `COC(=O)[C@@H]1CCCN1C(=O)c1ccc(C2=NOC(c3cc(Cl)cc(Cl)c3)(C(F)(F)F)C2)c2ccccc12` (stereo partly drawn) [Compound 97]: the “control efficacy” value in series [1] is listed as 20% or less feeding damage or 80% or more mortality. Consider `COC(=O)[C@H]1CCCN1C(=O)c1ccc(C2=NOC(c3cc(Cl)cc(Cl)c3)(C(F)(F)F)C2)c2ccccc12` (stereo partly drawn) [Compound 98], for which the “control efficacy” value in series [2] (sprayed at 250 ppm) and in series [1] was 20% or less feeding damage or 80% or more mortality throughout. As to `O=C(O)[C@@H]1CCCN1C(=O)c1ccc(C2=NOC(c3cc(Cl)cc(Cl)c3)(C(F)(F)F)C2)c2ccccc12` (stereo partly drawn) [Compound 99], the “control efficacy” value in series [1] is reported as 20% or less feeding damage or 80% or more mortality.

On to `CNC(=O)[C@@H]1CCCN1C(=O)c1ccc(C2=NOC(c3cc(Cl)cc(Cl)c3)(C(F)(F)F)C2)c2ccccc12` (stereo partly drawn) [Compound 103], for which the “control efficacy” value in series [1] is given as 20% or less feeding damage or 80% or more mortality. Regarding `CCNC(=O)[C@@H]1CCCN1C(=O)c1ccc(C2=NOC(c3cc(Cl)cc(Cl)c3)(C(F)(F)F)C2)c2ccccc12` (stereo partly drawn) [Compound 105], the “control efficacy” value in series [1] is on record as 20% or less feeding damage or 80% or more mortality.
